# From publication PMC7899551, “Phase 1 study of Z-endoxifen in patients with advanced gynecologic, desmoid, and hormone receptor-positive solid tumors” (Oncotarget, 2021)
# Where two headings read alike, the source gives them in different places.
# Test: Plasma pharmacokinetics of Z-endoxifen (HPLC assay, non-compartmental analysis)
# Assay type: in vivo, human
# Settings: human, plasma, po
# Protocol: This was an open-label trial of Z-endoxifen in patients with advanced solid tumors (https://clinicaltrials.gov/ identifier: NCT01273168). Z-endoxifen-HCl was supplied by the Pharmaceutical Management Branch, National Cancer Institute, as 20 and 40 mg capsules; agent was administered orally once daily on a continuous schedule in 28-day cycles with a starting dose of 20 mg/day taken either 1 hour before or 2 hours after meals. Dose escalation followed a traditional 3+3 design in which patients were dose-escalated to the next dose level (DL) in cohorts of 3 patients until dose-limiting toxicity (DLT) was observed. DLT was defined as an adverse event that occurred during cycle 1, was thought to be related to study drug administration, and met one of the following criteria: grade ≥ 3 non-hematologic toxicities (except diarrhea, nausea and vomiting, alopecia, rising creatinine or electrolyte toxicities that resolved within 24 hours, or intolerable estrogen withdrawal symptoms) or grade ≥ 3 hematologic toxicities (except neutropenia lasting less than 5 days, lymphopenia, or anemia). Eight dose levels (DL1-8) were examined: 20, 40, 60, 100, 140, 200, 280, and 360 mg, respectively. Two patients at DL8 received the free base form of Z-endoxifen on day 1 rather than the hydrochloride salt to assess the pharmacokinetics of that formulation.
# A 3-mL blood sample was collected in a K2 EDTA tube on day 1 of cycle 1 before drug administration and at the following times post-first dose: 0.5, 1, 2, 3, 4, 6, 8, and 24 hours. Samples were collected at the same time points on day 28 of cycle 1 for DL1-6 until a protocol amendment eliminated the requirement for these samples at the higher dose levels. Samples were wrapped in aluminum foil after collection to protect from light exposure. A 10-mL aliquot of urine was collected before agent administration on cycle 1 day 1, for 24 hours after dosing on day 1, and before drug administration on cycle 2 day 1; samples were refrigerated prior to analysis.
# Plasma and urine concentrations of Z- and E-endoxifen were measured using a validated, post-column fluorescence derivatization HPLC assay. Non-compartmental pharmacokinetic parameters were calculated using WinNonlin version 7.0 (Pharsight Corp., Mountainview, CA, USA). A 2 μM Cmax target was established for day 28 plasma concentration. The amount of Z-endoxifen excreted in urine was measured over a 24-hour collection period.
smiles,measurement,setting,value
CC/C(=C(\c1ccc(O)cc1)c1ccc(OCCNC)cc1)c1ccccc1 [Z-endoxifen],Cmax,"20 mg/day, DL1 20 mg/day oral, day 28, mean, read-out: Cmax, Mean",286 ng/mL
same,Tmax,"20 mg/day, DL1 20 mg/day oral, day 28, mean, read-out: Tmax, Mean",0.7 h
same,AUC(0-t),"40 mg, DL2 40 mg oral, day 1, individual patients, read-out: AUC(0-24h)",1290 ng·h/mL
same,Cmax,"40 mg, DL2 40 mg oral, day 1, individual patients, read-out: Cmax",83.6 ng/mL
same,AUC(0-t),"40 mg, DL2 40 mg oral, day 1, mean, read-out: AUC(0-24h), Mean",1650 ng·h/mL
same,concentration at 24 h,"40 mg, DL2 40 mg oral, day 1, mean, read-out: C24h, Mean",52.5 ng/mL
same,Cmax,"40 mg, DL2 40 mg oral, day 1, mean, read-out: Cmax, Mean",112 ng/mL
same,AUC(0-t),"40 mg/day, DL2 40 mg/day oral, day 28, individual patients, read-out: AUC(0-24h)",5570 ng·h/mL
same,half-life,"40 mg/day, DL2 40 mg/day oral, day 28, individual patients, read-out: Adjusted Half-Life (converted)",39.3 h
same,concentration at 24 h,"40 mg/day, DL2 40 mg/day oral, day 28, individual patients, read-out: C24h",136 ng/mL
same,Cmax,"40 mg/day, DL2 40 mg/day oral, day 28, individual patients, read-out: Cmax",321 ng/mL
same,AUC(0-t),"40 mg/day, DL2 40 mg/day oral, day 28, mean, read-out: AUC(0-24h), Mean",4760 ng·h/mL
same,concentration at 24 h,"40 mg/day, DL2 40 mg/day oral, day 28, mean, read-out: C24h, Mean",147 ng/mL
same,Cmax,"40 mg/day, DL2 40 mg/day oral, day 28, mean, read-out: Cmax, Mean",258 ng/mL
same,Tmax,"40 mg/day, DL2 40 mg/day oral, day 28, mean, read-out: Tmax, Mean",3.3 h
same,AUC(0-t),"60 mg, DL3 60 mg oral, day 1, individual patients, read-out: AUC(0-24h)",1620 ng·h/mL
same,concentration at 24 h,"60 mg, DL3 60 mg oral, day 1, individual patients, read-out: C24h",89.7 ng/mL
same,Cmax,"60 mg, DL3 60 mg oral, day 1, individual patients, read-out: Cmax",89.7 ng/mL
same,AUC(0-t),"60 mg, DL3 60 mg oral, day 1, mean, read-out: AUC(0-24h), Mean",2140 ng·h/mL
same,concentration at 24 h,"60 mg, DL3 60 mg oral, day 1, mean, read-out: C24h, Mean",82.7 ng/mL
same,Cmax,"60 mg, DL3 60 mg oral, day 1, mean, read-out: Cmax, Mean",122 ng/mL
same,Tmax,"60 mg, DL3 60 mg oral, day 1, mean, read-out: Tmax, Mean",12 h
same,AUC(0-t),"60 mg/day, DL3 60 mg/day oral, day 28, mean, read-out: AUC(0-24h), Mean",8080 ng·h/mL
same,concentration at 24 h,"60 mg/day, DL3 60 mg/day oral, day 28, mean, read-out: C24h, Mean",345 ng/mL
same,Cmax,"60 mg/day, DL3 60 mg/day oral, day 28, mean, read-out: Cmax, Mean",417 ng/mL
same,Tmax,"60 mg/day, DL3 60 mg/day oral, day 28, mean, read-out: Tmax, Mean",10.8 h
same,AUC(0-t),"100 mg, DL4 100 mg oral, day 1, individual patients, read-out: AUC(0-24h)",4640 ng·h/mL
same,concentration at 24 h,"100 mg, DL4 100 mg oral, day 1, individual patients, read-out: C24h",133 ng/mL
same,Cmax,"100 mg, DL4 100 mg oral, day 1, individual patients, read-out: Cmax",264 ng/mL
same,Tmax,"100 mg, DL4 100 mg oral, day 1, individual patients, read-out: Tmax",1 h
same,AUC(0-t),"100 mg, DL4 100 mg oral, day 1, mean, read-out: AUC(0-24h), Mean",5000 ng·h/mL
same,concentration at 24 h,"100 mg, DL4 100 mg oral, day 1, mean, read-out: C24h, Mean",155 ng/mL
same,Cmax,"100 mg, DL4 100 mg oral, day 1, mean, read-out: Cmax, Mean",296 ng/mL
same,Tmax,"100 mg, DL4 100 mg oral, day 1, mean, read-out: Tmax, Mean",4.3 h
same,AUC(0-t),"100 mg/day, DL4 100 mg/day oral, day 28, individual patients, read-out: AUC(0-24h)",13300 ng·h/mL
same,half-life,"100 mg/day, DL4 100 mg/day oral, day 28, individual patients, read-out: Adjusted Half-Life (converted)",36.8 h
same,concentration at 24 h,"100 mg/day, DL4 100 mg/day oral, day 28, individual patients, read-out: C24h",428 ng/mL
same,Cmax,"100 mg/day, DL4 100 mg/day oral, day 28, individual patients, read-out: Cmax",1300 ng/mL
same,Tmax,"100 mg/day, DL4 100 mg/day oral, day 28, individual patients, read-out: Tmax",2 h
same,AUC(0-t),"100 mg/day, DL4 100 mg/day oral, day 28, mean (one patient), read-out: AUC(0-24h), Mean",13300 ng·h/mL
same,half-life,"100 mg/day, DL4 100 mg/day oral, day 28, mean (one patient), read-out: Adjusted Half-Life, Mean (converted)",36.8 h
same,concentration at 24 h,"100 mg/day, DL4 100 mg/day oral, day 28, mean (one patient), read-out: C24h, Mean",428 ng/mL
same,Cmax,"100 mg/day, DL4 100 mg/day oral, day 28, mean, read-out: Cmax, Mean",1010 ng/mL
same,Tmax,"140 mg, DL5 140 mg oral, day 1, individual patients, read-out: Tmax",3 h
same,AUC(0-t),"140 mg, DL5 140 mg oral, day 1, mean, read-out: AUC(0-24h), Mean",9760 ng·h/mL
same,concentration at 24 h,"140 mg, DL5 140 mg oral, day 1, mean, read-out: C24h, Mean",311 ng/mL
same,Cmax,"140 mg, DL5 140 mg oral, day 1, mean, read-out: Cmax, Mean",610 ng/mL
same,Tmax,"140 mg, DL5 140 mg oral, day 1, mean, read-out: Tmax, Mean",4.3 h
same,AUC(0-t),"140 mg/day, DL5 140 mg/day oral, day 28, individual patients, read-out: AUC(0-24h)",18200 ng·h/mL
same,half-life,"140 mg/day, DL5 140 mg/day oral, day 28, individual patients, read-out: Adjusted Half-Life (converted)",33.1 h
same,concentration at 24 h,"140 mg/day, DL5 140 mg/day oral, day 28, individual patients, read-out: C24h",598 ng/mL
same,Cmax,"140 mg/day, DL5 140 mg/day oral, day 28, individual patients, read-out: Cmax",973 ng/mL
same,Tmax,"140 mg/day, DL5 140 mg/day oral, day 28, individual patients, read-out: Tmax",1 h
same,AUC(0-t),"140 mg/day, DL5 140 mg/day oral, day 28, mean, read-out: AUC(0-24h), Mean",17400 ng·h/mL
same,half-life,"140 mg/day, DL5 140 mg/day oral, day 28, mean, read-out: Adjusted Half-Life, Mean (converted)",30.6 h
same,concentration at 24 h,"140 mg/day, DL5 140 mg/day oral, day 28, mean, read-out: C24h, Mean",563 ng/mL
same,Cmax,"140 mg/day, DL5 140 mg/day oral, day 28, mean, read-out: Cmax, Mean",1110 ng/mL
same,AUC(0-t),"200 mg, DL6 200 mg oral, day 1, individual patients, read-out: AUC(0-24h)",6340 ng·h/mL
same,concentration at 24 h,"200 mg, DL6 200 mg oral, day 1, individual patients, read-out: C24h",279 ng/mL
same,Tmax,"200 mg, DL6 200 mg oral, day 1, individual patients, read-out: Tmax",2 h
same,AUC(0-t),"200 mg, DL6 200 mg oral, day 1, mean, read-out: AUC(0-24h), Mean",9220 ng·h/mL
same,concentration at 24 h,"200 mg, DL6 200 mg oral, day 1, mean, read-out: C24h, Mean",336 ng/mL
same,Cmax,"200 mg, DL6 200 mg oral, day 1, mean, read-out: Cmax, Mean",517 ng/mL
same,half-life,"200 mg/day, DL6 200 mg/day oral, day 28, individual patients, read-out: Adjusted Half-Life (converted)",34.8 h
same,AUC(0-t),"200 mg/day, DL6 200 mg/day oral, day 28, mean, read-out: AUC(0-24h), Mean",30800 ng·h/mL
same,concentration at 24 h,"200 mg/day, DL6 200 mg/day oral, day 28, mean, read-out: C24h, Mean",1070 ng/mL
same,Cmax,"200 mg/day, DL6 200 mg/day oral, day 28, mean, read-out: Cmax, Mean",1640 ng/mL
same,Cmax,"280 mg, DL7 280 mg oral, day 1, individual patients, read-out: Cmax",888 ng/mL
same,Tmax,"280 mg, DL7 280 mg oral, day 1, individual patients, read-out: Tmax",3 h
same,AUC(0-t),"280 mg, DL7 280 mg oral, day 1, mean, read-out: AUC(0-24h), Mean",15000 ng·h/mL
same,concentration at 24 h,"280 mg, DL7 280 mg oral, day 1, mean, read-out: C24h, Mean",468 ng/mL
same,Cmax,"280 mg, DL7 280 mg oral, day 1, mean, read-out: Cmax, Mean",930 ng/mL
same,Tmax,"360 mg, DL8 360 mg oral, day 1, individual patients, read-out: Tmax",2 h
same,AUC(0-t),"360 mg, DL8 360 mg oral, day 1, mean (excluding patients 35 and 36), read-out: AUC(0-24h), Mean",20500 ng·h/mL
same,concentration at 24 h,"360 mg, DL8 360 mg oral, day 1, mean (excluding patients 35 and 36), read-out: C24h, Mean",676 ng/mL
same,Cmax,"360 mg, DL8 360 mg oral, day 1, mean (excluding patients 35 and 36), read-out: Cmax, Mean",1310 ng/mL
same,Tmax,"360 mg, DL8 360 mg oral, day 1, mean (excluding patients 35 and 36), read-out: Tmax, Mean",3.9 h
same,AUC(0-t),"360 mg, HCl salt, 360 mg oral, day 2 (after free base on day 1), mean of patients 35 and 36, read-out: AUC(0–24 h), Mean",41600 ng·h/mL
same,concentration at 24 h,"360 mg, HCl salt, 360 mg oral, day 2 (after free base on day 1), mean of patients 35 and 36, read-out: C24 h, Mean",1470 ng/mL
same,concentration at 24 h,"360 mg, HCl salt, 360 mg oral, day 2 (after free base on day 1), patients 35 and 36 individually, read-out: C24 h",827 ng/mL
